Read-outs that look alike come from different tables or passages of the source.
Experiments:
[1] = biological target: CAMKKα (Homo sapiens, UniProt Q8N5S9); assay: Kinase screen: CAMKKa assay; format: biochemical; details: read-out: Mean Remaining Enzyme Activity (%)
Method: Generally, the same procedure was used for all assays. Since the total assay volume was 25.5 microliters, 0.5 microliters of inhibitors at 51× assay concentration were added to the plates before any other addition.
The basic procedure was to add 0.5 microliters inhibitor/control in DMSO to plate. Fifteen microliters of enzyme/substrate/buffer mix were added and incubated for 5 min. Ten microliters MgATP at the relevant concentration were added and incubated for 30 min. The assay was stopped by adding 5 microliters of 3% orthophosphoric acid. The assay was transferred to a p81 filter plate and read in a scintillation counter of 30 sec/well. Note that this assay procedure was not followed for MKK1, which instead involved a two-step assay, and PKC alpha, which required the addition of lipid vesicles.
CAMKKa assay: 5-20 mU of CAMKKa (diluted in 50 mM Tris (pH 7.5), 0.1 mM EGTA, 1 mg/ml BSA, 0.1%, b-Mercaptoethanol) was assayed against substrate peptide ([…]) (SEQ ID NO: 31) in a final volume of 25.5 μl containing 50 mM Tris (pH 7.5), 0.1 mM EGTA, 0.5 mM CaCl2, 0.3 μM calmodulin, 0.1%, b-Mercaptoethanol, 300 μM substrate peptide, 10 mM magnesium acetate and 0.02 mM [33P-g-ATP] (500-1000 cpm/pmole) and incubated for 30 mins at room temperature. Assays were stopped by addition of 5 μl of 0.5M (3%) orthophosphoric acid. […]

[2] = test system: NCI-H522
[3] = test system: SR; assay: cells; details: Homo sapiens
[4] = test system: MALME-3M; details: for Mean Optical Densities / Percent Growth: MALME-3M
[5] = test system: SF-295; assay: cells; details: Homo sapiens
[6] = test system: MCF7; assay: cells; details: Homo sapiens
[7] = test system: SF-268; assay: cells; details: Homo sapiens
[8] = test system: HOP-92; assay: cells; details: Homo sapiens
[9] = test system: 786-0
[10] = test system: SF-295
[11] = test system: UACC-62; assay: cells; details: Homo sapiens
[12] = test system: HCT-15; assay: cells; details: Homo sapiens
[13] = test system: SNB-19; assay: cells; details: Homo sapiens
[14] = test system: SW-620; assay: cells; details: Homo sapiens
[15] = test system: OVCAR-5
[16] = test system: NCI-H226
[17] = test system: KM12; assay: cells; details: Homo sapiens
[18] = NCI-H522, log10 concentration −4.0
[19] = NCI-H522, log10 concentration −5.0
[20] = NCI-H522, log10 concentration −6.0
[21] = NCI-H522, log10 concentration −7.0
[22] = NCI-H522, log10 concentration −8.0
[23] = 786-0, log10 concentration −4.0
[24] = 786-0, log10 concentration −5.0
[25] = 786-0, log10 concentration −6.0
[26] = 786-0, log10 concentration −7.0
[27] = 786-0, log10 concentration −8.0
[28] = SF-295, log10 concentration −4.0
[29] = SF-295, log10 concentration −5.0
[30] = SF-295, log10 concentration −6.0
[31] = SF-295, log10 concentration −7.0
[32] = SF-295, log10 concentration −8.0
[33] = OVCAR-5, log10 concentration −4.0
[34] = OVCAR-5, log10 concentration −5.0
[35] = OVCAR-5, log10 concentration −6.0
[36] = OVCAR-5, log10 concentration −7.0
[37] = OVCAR-5, log10 concentration −8.0
[38] = NCI-H226, log10 concentration −4.0
[39] = NCI-H226, log10 concentration −5.0
[40] = NCI-H226, log10 concentration −6.0
[41] = NCI-H226, log10 concentration −7.0
[42] = NCI-H226, log10 concentration −8.0

CC(C)c1cnn2c(NCc3ccccc3)cc(NCCCCCCCN)nc12 [BS-181]
remaining activity at 10 µM [1]: 57%

CC(C)c1cnn2c(NCc3ccccc3)cc(N[C@@H](CO)[C@H](O)CO)nc12 [ICEC0318, (3S)-3-(7-(Benzylamino)-3-isopropylpyrazolo[1,5-a]pyrimidin-5-ylamino)butane-1,2,4-triol]
TGI ([2]; NCI-H522 (Non-Small Cell Lung Cancer)): 2.13E−6 | Mean Optical Densities [2, 18]: 0.741 | Percent Growth [2, 18]: −17% | Mean Optical Densities [2, 19]: 0.640 | Percent Growth [2, 19]: −29% | Mean Optical Densities [2, 20]: 1.075 | Percent Growth [2, 20]: 14% | Mean Optical Densities [2, 21]: 2.156 | Percent Growth [2, 21]: 99% | Mean Optical Densities [2, 22]: 2.185 | Percent Growth [2, 22]: 101% | GI50 [3]: 75.8 nM | CC50 ([3]; read-out: LC50): > 100000 nM | TGI ([4]; MALME-3M (Melanoma)): 1.09E−6 | Mean Optical Densities ([4]; log10 concentration −4.0): 0.398 | Percent Growth ([4]; log10 concentration −4.0): −29% | Mean Optical Densities ([4]; log10 concentration −5.0): 0.458 | Percent Growth ([4]; log10 concentration −5.0): −19% | Mean Optical Densities ([4]; log10 concentration −6.0): 0.565 | Percent Growth ([4]; log10 concentration −6.0): 1% | Mean Optical Densities ([4]; log10 concentration −7.0): 1.008 | Percent Growth ([4]; log10 concentration −7.0): 126% | Mean Optical Densities ([4]; log10 concentration −8.0): 0.958 | Percent Growth ([4]; log10 concentration −8.0): 112% | GI50 ([5]; SF-295): 266 nM | CC50 ([5]; SF-295, read-out: LC50): > 100000 nM | GI50 ([6]; MCF7): 221 nM | CC50 ([6]; MCF7, read-out: LC50): > 100000 nM | GI50 ([7]; SF-268): 326 nM | CC50 ([7]; SF-268, read-out: LC50): > 100000 nM | GI50 ([8]; HOP-92): 369 nM | CC50 ([8]; HOP-92, read-out: LC50): > 100000 nM | TGI ([9]; 786-0 (Renal Cancer)): 8.99E−7 | Mean Optical Densities [9, 23]: 0.491 | Percent Growth [9, 23]: −21% | Mean Optical Densities [9, 24]: 0.598 | Percent Growth [9, 24]: −4% | Mean Optical Densities [9, 25]: 0.592 | Percent Growth [9, 25]: −5% | Mean Optical Densities [9, 26]: 1.769 | Percent Growth [9, 26]: 98% | Mean Optical Densities [9, 27]: 1.824 | Percent Growth [9, 27]: 103% | GI50 ([9]; Homo sapiens, 786-0): 293 nM | CC50 ([9]; Homo sapiens, 786-0, read-out: LC50): > 100000 nM | TGI ([10]; SF-295 (CNS Cancer)): 3.10E−5 | Mean Optical Densities [10, 28]: 0.371 | Percent Growth [10, 28]: −4% | Mean Optical Densities [10, 29]: 0.427 | Percent Growth [10, 29]: 4% | Mean Optical Densities [10, 30]: 0.447 | Percent Growth [10, 30]: 6% | Mean Optical Densities [10, 31]: 1.288 | Percent Growth [10, 31]: 83% | Mean Optical Densities [10, 32]: 1.492 | Percent Growth [10, 32]: 101% | GI50 ([11]; UACC-62): 155 nM | CC50 ([11]; UACC-62, read-out: LC50): 644 nM | GI50 ([12]; HCT-15): 377 nM | CC50 ([12]; HCT-15, read-out: LC50): > 100000 nM | GI50 ([13]; SNB-19): 283 nM | CC50 ([13]; SNB-19, read-out: LC50): > 100000 nM | GI50 ([14]; SW-620): 285 nM | CC50 ([14]; SW-620, read-out: LC50): > 100000 nM | TGI ([15]; OVCAR-5 (Ovarian Cancer)): >1.00E−4 | Mean Optical Densities [15, 33]: 0.618 | Percent Growth [15, 33]: 10% | Mean Optical Densities [15, 34]: 0.688 | Percent Growth [15, 34]: 19% | Mean Optical Densities [15, 35]: 0.665 | Percent Growth [15, 35]: 16% | Mean Optical Densities [15, 36]: 1.165 | Percent Growth [15, 36]: 82% | Mean Optical Densities [15, 37]: 1.211 | Percent Growth [15, 37]: 88% | Mean Optical Densities [16, 38]: 0.725 | Percent Growth [16, 38]: 4% | Mean Optical Densities [16, 39]: 0.613 | Percent Growth [16, 39]: −9% | Mean Optical Densities [16, 40]: 0.662 | Percent Growth [16, 40]: −1% | Mean Optical Densities [16, 41]: 1.920 | Percent Growth [16, 41]: 89% | Mean Optical Densities [16, 42]: 2.076 | Percent Growth [16, 42]: 101% | GI50 ([17]; KM12): 275 nM | CC50 ([17]; KM12, read-out: LC50): > 100000 nM

Source: US8067424B2, “Selective inhibitors for cyclin-dependent kinases” (Emory University, priority 2007, dated 2011)
